Measurements published in publication PMC8648761, “Reductive inactivation of the hemiaminal pharmacophore for resistance against tetrahydroisoquinoline antibiotics” (Nature Communications, 2021).

How the values were obtained:
SfmC = target: T1, SfmC (Streptomyces lavendulae, UniProt B0CN27); assay: MS of dual Pictet-Spengler product […]; assay type: biochemical; conditions: 1 mM substrate, 0.5 mM myristoyl-Ala-glycinaldehyde, 1 mM ATP, MgCl2, MnCl2, NADH, HEPES pH 7.0, 30 C, 2 h
T1 construct: NRPS
T1 sequence (B0CN27 entry or part of it): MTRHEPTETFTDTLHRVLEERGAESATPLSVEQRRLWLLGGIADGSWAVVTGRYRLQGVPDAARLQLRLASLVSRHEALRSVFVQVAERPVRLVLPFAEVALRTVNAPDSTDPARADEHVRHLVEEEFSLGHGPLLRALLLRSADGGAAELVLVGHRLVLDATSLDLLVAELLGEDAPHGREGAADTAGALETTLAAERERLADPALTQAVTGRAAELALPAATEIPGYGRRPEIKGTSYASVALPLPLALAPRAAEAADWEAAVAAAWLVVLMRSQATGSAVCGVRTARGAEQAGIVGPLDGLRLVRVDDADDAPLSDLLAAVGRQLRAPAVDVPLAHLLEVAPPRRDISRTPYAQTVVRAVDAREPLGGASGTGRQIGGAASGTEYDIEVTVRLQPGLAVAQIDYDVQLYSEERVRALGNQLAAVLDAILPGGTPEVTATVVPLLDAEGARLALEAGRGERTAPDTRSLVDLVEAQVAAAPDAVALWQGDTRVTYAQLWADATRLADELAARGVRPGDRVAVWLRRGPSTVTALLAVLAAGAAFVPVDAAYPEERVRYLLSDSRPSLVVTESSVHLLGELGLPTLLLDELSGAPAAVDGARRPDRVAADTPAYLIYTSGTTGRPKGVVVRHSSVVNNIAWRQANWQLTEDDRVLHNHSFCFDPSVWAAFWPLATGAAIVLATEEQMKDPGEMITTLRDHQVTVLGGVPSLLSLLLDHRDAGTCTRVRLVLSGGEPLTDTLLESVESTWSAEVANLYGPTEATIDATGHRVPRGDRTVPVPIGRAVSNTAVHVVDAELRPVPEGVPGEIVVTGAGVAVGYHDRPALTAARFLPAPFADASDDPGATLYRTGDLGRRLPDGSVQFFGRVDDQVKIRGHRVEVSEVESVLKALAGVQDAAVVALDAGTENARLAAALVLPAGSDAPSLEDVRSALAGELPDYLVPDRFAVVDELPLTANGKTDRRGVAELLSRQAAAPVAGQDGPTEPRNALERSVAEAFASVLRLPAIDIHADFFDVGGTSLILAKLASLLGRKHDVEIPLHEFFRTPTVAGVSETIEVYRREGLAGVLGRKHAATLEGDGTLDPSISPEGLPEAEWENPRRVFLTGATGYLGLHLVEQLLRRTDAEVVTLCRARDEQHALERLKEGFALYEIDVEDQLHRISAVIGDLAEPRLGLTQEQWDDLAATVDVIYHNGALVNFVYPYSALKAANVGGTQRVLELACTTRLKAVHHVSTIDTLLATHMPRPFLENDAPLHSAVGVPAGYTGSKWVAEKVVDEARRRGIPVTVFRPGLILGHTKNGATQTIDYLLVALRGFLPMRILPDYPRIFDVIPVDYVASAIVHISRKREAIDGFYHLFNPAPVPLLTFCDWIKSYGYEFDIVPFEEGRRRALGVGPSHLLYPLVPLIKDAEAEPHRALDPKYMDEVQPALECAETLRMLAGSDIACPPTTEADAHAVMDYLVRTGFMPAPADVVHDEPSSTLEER

NapW [1] = target: T2, NapW (Streptomyces lusitanus, UniProt S4TKM8); assay: X-ray crystal structure (co-crystallisation); assay type: binding; conditions: co-crystallised with 5 mM NADPH; modelled as NADP+; Rossmann fold site
T2 construct: recombinant in E. coli BL21(DE3), His-tagged, Ni-NTA (pET-28a or pET-37b)
T2 sequence (S4TKM8 entry or part of it): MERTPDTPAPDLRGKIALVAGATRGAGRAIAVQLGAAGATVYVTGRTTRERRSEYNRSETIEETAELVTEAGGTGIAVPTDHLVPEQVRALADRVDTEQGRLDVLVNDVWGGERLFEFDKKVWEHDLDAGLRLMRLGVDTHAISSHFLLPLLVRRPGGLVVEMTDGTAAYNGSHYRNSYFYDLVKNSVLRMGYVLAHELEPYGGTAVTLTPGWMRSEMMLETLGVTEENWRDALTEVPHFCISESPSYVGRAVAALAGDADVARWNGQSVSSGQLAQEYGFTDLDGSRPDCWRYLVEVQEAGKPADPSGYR

SDR-Mb = target: T3, SDR-Mb (Myxococcales bacterium, UniProt A0A1M3NHK2); assay: HPLC of reduction to […]; assay type: biochemical; conditions: […] ET-[…] NADPH, Tris-HCl pH […] C, […] h
T3 construct: recombinant in E. coli BL21(DE3), His-tagged
T3 sequence (A0A1M3NHK2 1-336): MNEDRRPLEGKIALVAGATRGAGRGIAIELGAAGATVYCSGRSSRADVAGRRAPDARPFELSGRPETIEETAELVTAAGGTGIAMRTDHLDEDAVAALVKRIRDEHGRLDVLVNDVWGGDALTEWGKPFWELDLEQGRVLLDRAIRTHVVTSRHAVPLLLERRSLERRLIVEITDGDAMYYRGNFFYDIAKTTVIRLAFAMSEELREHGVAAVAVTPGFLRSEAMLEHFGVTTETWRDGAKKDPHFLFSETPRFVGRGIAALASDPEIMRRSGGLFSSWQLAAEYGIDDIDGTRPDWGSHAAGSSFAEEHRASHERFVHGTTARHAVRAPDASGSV

NapW [2] = target: T2, NapW; assay: HPLC and MS of reduction to […]; assay type: biochemical; conditions: 290 uM ET-743, 1 mM NADPH, Tris-HCl pH 8.0, 30 C, 8 h
homO1a = target: T4, homO1a (Streptomyces lavendulae, UniProt A0A895ZRD1); assay: HPLC and MS of reduction to […]; assay type: biochemical; conditions: […] ET-[…] NADPH, Tris-HCl pH […] C, […] h
T4 sequence (A0A895ZRD1 1-325): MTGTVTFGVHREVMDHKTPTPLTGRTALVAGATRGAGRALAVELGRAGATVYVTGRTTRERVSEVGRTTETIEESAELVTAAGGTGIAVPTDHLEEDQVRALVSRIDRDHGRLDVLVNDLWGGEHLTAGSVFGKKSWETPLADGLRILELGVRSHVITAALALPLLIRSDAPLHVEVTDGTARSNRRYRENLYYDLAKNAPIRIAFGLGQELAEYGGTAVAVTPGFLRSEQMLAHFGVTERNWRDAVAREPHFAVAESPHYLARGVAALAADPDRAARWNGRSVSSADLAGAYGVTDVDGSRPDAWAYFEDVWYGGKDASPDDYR

SDR-Cs = target: T5, SDR-Cs (Chlorella sorokiniana, UniProt A0A2P6TRY4); assay: HPLC of reduction to […]; assay type: biochemical; conditions: 290 uM ET-743, 1 mM NADPH, Tris-HCl pH 8.0, 30 C, 8 h
T5 construct: gene C2E21_4667; recombinant in E. coli BL21(DE3), His-tagged
T5 sequence (A0A2P6TRY4 entry or part of it): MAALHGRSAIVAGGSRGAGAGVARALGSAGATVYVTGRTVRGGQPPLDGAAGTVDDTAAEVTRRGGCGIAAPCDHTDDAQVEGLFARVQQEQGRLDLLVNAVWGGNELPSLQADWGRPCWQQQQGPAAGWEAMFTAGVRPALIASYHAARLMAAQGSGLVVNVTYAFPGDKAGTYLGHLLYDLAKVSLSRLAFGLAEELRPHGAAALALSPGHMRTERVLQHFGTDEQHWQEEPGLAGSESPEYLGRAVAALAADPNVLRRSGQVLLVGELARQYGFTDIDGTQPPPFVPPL

homW = target: T6, homW (Streptomyces lusitanus, UniProt A0A896A0X3); assay: HPLC and MS of reduction to […]; assay type: biochemical; conditions: […] ET-[…] NADPH, Tris-HCl pH […] C, […] h
T6 sequence (A0A896A0X3 1-304): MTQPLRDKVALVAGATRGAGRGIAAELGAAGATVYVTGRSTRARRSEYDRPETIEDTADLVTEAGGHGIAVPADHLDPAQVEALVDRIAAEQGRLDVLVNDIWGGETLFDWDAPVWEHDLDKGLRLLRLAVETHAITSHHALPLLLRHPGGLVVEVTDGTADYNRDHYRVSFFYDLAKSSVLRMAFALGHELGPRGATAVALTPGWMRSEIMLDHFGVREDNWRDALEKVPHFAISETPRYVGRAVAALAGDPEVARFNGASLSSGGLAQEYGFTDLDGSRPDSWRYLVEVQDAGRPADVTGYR

[3] = test system: T7, SDR-Rm (Rhizobium mesoamericanum); assay: HPLC of reduction to […]; assay type: biochemical; conditions: […] ET-[…] NADPH, Tris-HCl pH […] C, […] h
T7 construct: recombinant in E. coli BL21(DE3), His-tagged
T7 sequence (Z9SGJ4VC86 1-304): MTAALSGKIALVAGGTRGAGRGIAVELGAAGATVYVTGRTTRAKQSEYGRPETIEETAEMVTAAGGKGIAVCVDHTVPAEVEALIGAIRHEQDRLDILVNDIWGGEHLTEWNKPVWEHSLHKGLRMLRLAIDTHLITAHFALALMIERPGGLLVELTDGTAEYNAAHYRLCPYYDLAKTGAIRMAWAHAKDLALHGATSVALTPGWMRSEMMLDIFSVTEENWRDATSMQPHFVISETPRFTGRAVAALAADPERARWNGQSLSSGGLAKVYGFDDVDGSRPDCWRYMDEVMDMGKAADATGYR

SDR-Pb = target: T8, SDR-Pb (Paenibacillus rhizosphaerae, UniProt A0A1R1EZ79); assay: HPLC of reduction to […]; assay type: biochemical; conditions: 290 uM ET-743, 1 mM NADPH, Tris-HCl pH 8.0, 30 C, 8 h
T8 construct: gene BK138_00365; recombinant in E. coli BL21(DE3), His-tagged
T8 sequence (A0A1R1EZ79 entry or part of it): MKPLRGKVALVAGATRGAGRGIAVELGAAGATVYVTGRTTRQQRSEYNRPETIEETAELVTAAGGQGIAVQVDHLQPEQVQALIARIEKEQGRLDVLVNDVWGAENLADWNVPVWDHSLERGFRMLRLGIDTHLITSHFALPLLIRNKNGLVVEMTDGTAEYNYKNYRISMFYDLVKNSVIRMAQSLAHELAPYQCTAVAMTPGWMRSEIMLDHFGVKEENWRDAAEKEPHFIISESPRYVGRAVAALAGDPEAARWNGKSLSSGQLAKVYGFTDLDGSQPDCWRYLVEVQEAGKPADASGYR

homO1b = target: T9, homO1b (Streptomyces lavendulae, UniProt A0A896A5A8); assay: HPLC and MS of reduction to […]; assay type: biochemical; conditions: […] ET-[…] NADPH, Tris-HCl pH […] C, […] h
T9 sequence (A0A896A5A8 1-308): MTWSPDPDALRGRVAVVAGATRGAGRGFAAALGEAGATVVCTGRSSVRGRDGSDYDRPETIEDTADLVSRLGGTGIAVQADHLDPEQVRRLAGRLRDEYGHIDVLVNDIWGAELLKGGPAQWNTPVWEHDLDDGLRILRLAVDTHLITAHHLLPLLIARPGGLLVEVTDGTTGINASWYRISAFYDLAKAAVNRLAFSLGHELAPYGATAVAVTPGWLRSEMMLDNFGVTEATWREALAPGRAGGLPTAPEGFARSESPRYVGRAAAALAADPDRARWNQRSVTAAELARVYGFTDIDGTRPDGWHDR

SfmO1 = SfmO1 (Streptomyces lavendulae, UniProt B0CN12); assay: HPLC and MS of reduction to […]; assay type: biochemical; conditions: 290 uM ET-743, 1 mM NADPH, Tris-HCl pH 8.0, 30 C, 8 h
SfmO1, sequence (B0CN12 entry or part of it): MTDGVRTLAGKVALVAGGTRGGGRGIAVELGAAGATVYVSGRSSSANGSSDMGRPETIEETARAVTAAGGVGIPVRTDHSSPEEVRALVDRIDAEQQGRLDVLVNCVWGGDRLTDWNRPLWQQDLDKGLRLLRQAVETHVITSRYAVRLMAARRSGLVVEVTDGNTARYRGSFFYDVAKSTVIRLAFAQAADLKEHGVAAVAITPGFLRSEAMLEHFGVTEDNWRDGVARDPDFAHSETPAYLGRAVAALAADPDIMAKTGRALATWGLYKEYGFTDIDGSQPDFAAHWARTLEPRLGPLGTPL

COc1c(C)cc(C[C@H](N)C(=O)O)cc1O [3-OH-5-Me-O-Me-Tyr] was tested, and the “MS of dual Pictet-Spengler product 16” value (SfmC) was “Dual Pictet-Spengler reactions catalyzed SfmC”.
For NC(=O)c1ccc[n+]([C@@H]2O[C@H](COP(=O)(O)OP(=O)(O)OC[C@H]3O[C@@H](n4cnc5c(N)ncnc54)[C@H](OP(=O)(O)O)[C@@H]3O)[C@@H](O)[C@H]2O)c1 [NADP^+], the “X-ray crystal structure (co-crystallisation)” value (NapW [1]) was “We further obtained the structure of NapW·NADP^+ binary complex by co-crystallizing NapW, NADP(H)”.
COc1cc2c(cc1O)CCN[C@]21CS[C@@H]2c3c(OC(C)=O)c(C)c4c(c3[C@H](COC1=O)N1[C@@H]2[C@H]2c3c(cc(C)c(OC)c3O)C[C@@H]([C@@H]1O)N2C)OCO4 [compound 7, ET-743] was tested, and the “HPLC of reduction to 8” value (SDR-Mb) was “most proteins can catalyze reductive reaction of THIQ compounds except that SDR-Li and SDR-Ss”, the “HPLC and MS of reduction to 8” value (NapW [2]) was “each of the five SDRs originated from NDM or SFM-A producer could effectively catalyze” and the “HPLC and MS of reduction to 8” value (homO1a) was “each of the five SDRs originated from NDM or SFM-A producer could effectively catalyze”. For the same molecule, the “HPLC of reduction to 8” value (SDR-Cs) was “most proteins can catalyze reductive reaction of THIQ compounds except that SDR-Li and SDR-Ss”, the “HPLC and MS of reduction to 8” value (homW) was “each of the five SDRs originated from NDM or SFM-A producer could effectively catalyze” and the “HPLC of reduction to 8” value [3] was “most proteins can catalyze reductive reaction of THIQ compounds except that SDR-Li and SDR-Ss”. The “HPLC of reduction to 8” value (SDR-Pb) was “most proteins can catalyze reductive reaction of THIQ compounds except that SDR-Li and SDR-Ss”, the “HPLC and MS of reduction to 8” value (homO1b) was “each of the five SDRs originated from NDM or SFM-A producer could effectively catalyze” and the “HPLC and MS of reduction to 8” value (SfmO1) was “each of the five SDRs originated from NDM or SFM-A producer could effectively catalyze”.
